pIC50: −log10 of the molar value.
Experiments:
[1] = system: chronic myeloid leukemia (CML); settings: chronic phase CML patients; cited from earlier work
[2] = system: BaF3 cells expressing FNTB W106R; test: soft agar colony assay (cellular IC50); settings: Mus musculus, BaF3, 336 h, read-out: Cellular IC50
[3] = biological target: FTase, β subunit W106R (Homo sapiens, UniProt P49356, W106R); settings: all drug concentrations
[4] = patients, reported (ref. 8); cited from earlier work
[5] = system: BaF3 cells expressing wild-type FNTB; test: cells; settings: Mus musculus, BaF3, 336 h, read-out: Cellular IC50
[6] = system: BaF3 cells expressing FNTB P152S; test: cells; settings: Mus musculus, BaF3, 336 h, read-out: Cellular IC50
[7] = system: BaF3 cells expressing FNTB G241E; test: cells; settings: Mus musculus, BaF3, 336 h, read-out: Cellular IC50
[8] = system: BaF3 cells expressing FNTB C95R; test: soft agar colony assay (cellular IC50); settings: Mus musculus, BaF3, 336 h, read-out: Cellular IC50

## Cc1ccc(NC(=O)c2ccc(CN3CCN(C)CC3)cc2)cc1Nc1nccc(-c2cccnc2)n1 [imatinib]
[1]
  response rate: over 90%

## NC(=O)N1CCC(CC(=O)N2CCC([C@H]3c4ncc(Br)cc4CCc4cc(Cl)cc(Br)c43)CC2)CC1 [Lonafarnib, (+)-4-[2-[4-(8-Chloro-3,10-dibromo-6,11-dihydro-5H-benzo[5,6]cyclohepta[1,2-b]-pyridin-11(R)-yl)-1-piperidinyl]-2-oxo-ethyl]-1-piperidinecarboxamide]
[2]
  pIC50: < 5.00
[3]
  HDJ2 farnesylation by western blot: 100%
[4]
  trough plasma concentrations: 1.5 µM
[5]
  pIC50: 7.05
[6]
  pIC50: 6.52
[7]
  pIC50: 6.22
[8]
  pIC50: 5.74

Reference: patent US20090181369A1, “Methods for the Treatment of Disease” (priority 2005, published 2009)
